Paper PMC5659294 (Pharmacogenetics and genomics, 2017)
Where two headings read alike, the source gives them in different places. Each block holds one molecule with its values, some of them ahead of it.

Type: in vivo, human

Association of season with N-desmethyltamoxifen concentration, β (secondary screen, fall compared to winter): −1.053
Association of weight with N-desmethyltamoxifen concentration, β (secondary screen, greater weight): −0.025
SMILES: CC/C(=C(\c1ccccc1)c1ccc(OCCNC)cc1)c1ccccc1 [N-desmethyltamoxifen]

Final multivariable model, steady-state endoxifen concentration, B Coefficient (95% Confidence Interval) (CYP2C9 Activity Phenotype): .20 (0.03, 0.37)
Final multivariable model, steady-state endoxifen concentration, B Coefficient (95% Confidence Interval) (CYP2D6 Diplotype IM/IM (vs. NM/NM)): −.87 (−1.4, −.34)
Final multivariable model, steady-state endoxifen concentration, B Coefficient (95% Confidence Interval) (CYP2D6 Diplotype IM/PM (vs. NM/NM)): −.96 (−1.3, −.61)
Final multivariable model, steady-state endoxifen concentration, B Coefficient (95% Confidence Interval) (CYP2D6 Diplotype NM/IM (vs. NM/NM)): −.35 (−.61, −.08)
Final multivariable model, steady-state endoxifen concentration, B Coefficient (95% Confidence Interval) (CYP2D6 Diplotype NM/PM (vs. NM/NM)): −.49 (−.73, −.26)
Final multivariable model, steady-state endoxifen concentration, B Coefficient (95% Confidence Interval) (CYP2D6 Diplotype PM/PM (vs. NM/NM)): −1.32 (−1.79, −.85)
Final multivariable model, steady-state endoxifen concentration, B Coefficient (95% Confidence Interval) (Season of Sample Collection Fall (vs. winter)): −.48 (−.74, −.22)
Final multivariable model, steady-state endoxifen concentration, B Coefficient (95% Confidence Interval) (Season of Sample Collection Summer (vs. winter)): −.49 (−.79, −.19)
Final multivariable model, steady-state endoxifen concentration, B Coefficient (95% Confidence Interval) (Weight (kg)): −.013 (−.02, −.01)
Association of SULT1A1 activity with endoxifen/4-OH-tamoxifen ratio, β (secondary screen, higher SULT1A1 predicted activity phenotype): 0.54
Association of CYP2C8 activity with ratio of endoxifen to N-desmethyltamoxifen, β (secondary screen, increased CYP2C8 predicted activity phenotype): 0.01
Mean Endoxifen (Std. Dev.) (steady state, tamoxifen 20 mg daily, ABCB1 predicted activity phenotype Normal): 7.01 (4.41) n=60 ng/mL
Mean Endoxifen (Std. Dev.) (steady state, tamoxifen 20 mg daily, ABCB1 predicted activity phenotype Poor): 8.93 (7.53) n=37 ng/mL
Mean Endoxifen (Std. Dev.) (steady state, tamoxifen 20 mg daily, ABCC2 predicted activity phenotype Normal): 8.29 (4.99) n=89 ng/mL
Mean Endoxifen (Std. Dev.) (steady state, tamoxifen 20 mg daily, ABCC2 predicted activity phenotype Poor): 9.30 (5.34) n=10 ng/mL
Mean Endoxifen (Std. Dev.) (steady state, tamoxifen 20 mg daily, ABCG2 predicted activity phenotype Normal): 7.90 (5.48) n=249 ng/mL
Mean Endoxifen (Std. Dev.) (steady state, tamoxifen 20 mg daily, ABCG2 predicted activity phenotype Poor): 12.82 (10.85) n=3 ng/mL
Mean Endoxifen (Std. Dev.) (steady state, tamoxifen 20 mg daily, CYP1A1 predicted activity phenotype Normal): 8.05 (5.51) n=248 ng/mL
Mean Endoxifen (Std. Dev.) (steady state, tamoxifen 20 mg daily, CYP1A1 predicted activity phenotype Poor): 3.19 (1.53) n=2 ng/mL
Mean Endoxifen (Std. Dev.) (steady state, tamoxifen 20 mg daily, CYP1A2 predicted activity phenotype Normal): 8.13 (4.48) n=22 ng/mL
Mean Endoxifen (Std. Dev.) (steady state, tamoxifen 20 mg daily, CYP1A2 predicted activity phenotype Poor): 9.57 (6.18) n=6 ng/mL
Mean Endoxifen (Std. Dev.) (steady state, tamoxifen 20 mg daily, CYP2A6 predicted activity phenotype Normal): 7.95 (5.57) n=220 ng/mL
Mean Endoxifen (Std. Dev.) (steady state, tamoxifen 20 mg daily, CYP2A6 predicted activity phenotype Poor): 7.46 (9.71) n=5 ng/mL
Mean Endoxifen (Std. Dev.) (steady state, tamoxifen 20 mg daily, CYP2B6 predicted activity phenotype Normal): 8.11 (5.33) n=151 ng/mL
Mean Endoxifen (Std. Dev.) (steady state, tamoxifen 20 mg daily, CYP2B6 predicted activity phenotype Poor): 8.20 (4.81) n=24 ng/mL
Mean Endoxifen (Std. Dev.) (steady state, tamoxifen 20 mg daily, CYP2C8 predicted activity phenotype Normal): 8.38 (5.72) n=205 ng/mL
Mean Endoxifen (Std. Dev.) (steady state, tamoxifen 20 mg daily, CYP2C8 predicted activity phenotype Poor): 6.71 (5.04) n=13 ng/mL
Mean Endoxifen (Std. Dev.) (steady state, tamoxifen 20 mg daily, CYP2C9 predicted activity phenotype Normal): 8.29 (5.61) n=189 ng/mL
Mean Endoxifen (Std. Dev.) (steady state, tamoxifen 20 mg daily, CYP2C9 predicted activity phenotype Poor): 6.26 (4.82) n=9 ng/mL
Mean Endoxifen (Std. Dev.) (steady state, tamoxifen 20 mg daily, CYP2C19 predicted activity phenotype Normal): 7.64 (5.97) n=109 ng/mL
Mean Endoxifen (Std. Dev.) (steady state, tamoxifen 20 mg daily, CYP2C19 predicted activity phenotype Poor): 7.95 (5.66) n=13 ng/mL
Mean Endoxifen (Std. Dev.) (steady state, tamoxifen 20 mg daily, CYP2E1 predicted activity phenotype Normal): 8.03 (5.40) n=84 ng/mL
Mean Endoxifen (Std. Dev.) (steady state, tamoxifen 20 mg daily, CYP3A4 predicted activity phenotype Normal): 7.78 (5.39) n=288 ng/mL
Mean Endoxifen (Std. Dev.) (steady state, tamoxifen 20 mg daily, CYP3A5 predicted activity phenotype Normal): 8.51 (7.70) n=8 ng/mL
Mean Endoxifen (Std. Dev.) (steady state, tamoxifen 20 mg daily, CYP3A5 predicted activity phenotype Poor): 7.71 (5.29) n=240 ng/mL
Mean Endoxifen (Std. Dev.) (steady state, tamoxifen 20 mg daily, SLCO1B1 predicted activity phenotype Normal): 8.63 (5.57) n=87 ng/mL
Mean Endoxifen (Std. Dev.) (steady state, tamoxifen 20 mg daily, SLCO1B1 predicted activity phenotype Poor): 6.97 (4.21) n=62 ng/mL
Mean Endoxifen (Std. Dev.) (steady state, tamoxifen 20 mg daily, SULT1A1 predicted activity phenotype Normal): 7.56 (4.51) n=111 ng/mL
Mean Endoxifen (Std. Dev.) (steady state, tamoxifen 20 mg daily, SULT1A1 predicted activity phenotype Poor): 7.81 (6.59) n=45 ng/mL
Mean Endoxifen (Std. Dev.) (steady state, tamoxifen 20 mg daily, SULT1A2 predicted activity phenotype Normal): 7.94 (5.23) n=84 ng/mL
Mean Endoxifen (Std. Dev.) (steady state, tamoxifen 20 mg daily, SULT1A2 predicted activity phenotype Poor): 7.72 (5.70) n=74 ng/mL
Mean Endoxifen (Std. Dev.) (steady state, tamoxifen 20 mg daily, UGT2B7 predicted activity phenotype Normal): 7.11 (5.09) n=73 ng/mL
Mean Endoxifen (Std. Dev.) (steady state, tamoxifen 20 mg daily, UGT2B7 predicted activity phenotype Poor): 8.38 (5.36) n=63 ng/mL
Mean Endoxifen (Std. Dev.) (steady state, tamoxifen 20 mg daily, UGT2B15 predicted activity phenotype Normal): 8.07 (5.82) n=71 ng/mL
Mean Endoxifen (Std. Dev.) (steady state, tamoxifen 20 mg daily, UGT2B15 predicted activity phenotype Poor): 7.75 (4.48) n=75 ng/mL
Mean Endoxifen (Std. Dev.) (steady state, tamoxifen 20 mg daily, UGT2B17 predicted activity phenotype Normal): 7.83 (5.25) n=122 ng/mL
Mean Endoxifen (Std. Dev.) (steady state, tamoxifen 20 mg daily, UGT2B17 predicted activity phenotype Poor): 6.60 (5.48) n=35 ng/mL
SMILES: CC/C(=C(\c1ccc(O)cc1)c1ccc(OCCNC)cc1)c1ccccc1 [endoxifen]

tamoxifen concentrations by season of sample collection (steady state, tamoxifen 20 mg daily): not different between the seasons
SMILES: CC/C(=C(\c1ccccc1)c1ccc(OCCN(C)C)cc1)c1ccccc1 [tamoxifen, reference compound]
